Where a name gives a salt, the structure may show the parent alone. Read-outs that look alike come from different tables or passages of the source.
Experiments:
[1] = tested on: A. baumannii; test: MIC, 96-well CAMHB, 10^5 to 10^2 CFU/mL in 24 hours; type: cell-based, Acinetobacter baumannii; conditions: Acinetobacter baumannii, read-out: MIC (A. bumannii)
Protocol: To determine the MIC of polyamine compounds, the protocol described herein was used.
In brief, a 0.5 McFarland of each bacterial isolate was made. A 0.5 McFarland is a measure of turbidity in a liquid sample that contains approximately 1×10^∧8 CFU/mL. The 0.5 McFarland standard was diluted in cation adjusted Mueller Hinton Broth (CAMHB), and 50 μL of broth were added to a well of a 96-well plate. In addition, 50 μL of CAMHB that contained a desired concentration of antimicrobial were also added to the well for a final volume of 100 μL and a final concentration of approximately 5×10^4 CFU/well (which equated to approximately 5×10^5 CFU/mL). Each well contained a desired amount of polyamine compound in order to experimentally determine the MIC. Each 96-well plate was incubated at 37° C. for 24 hours. The contents of each well were plated on tryptic soy agar (TSA). TSA plates were incubated for 37° C. for 24 hours after which the number of CFU were counted and used to calculate the CFU/mL that remained after exposure to varying concentrations of compound. This procedure was repeated n=8 times for each concentration of antimicrobial.
A 0.5 McFarland of A. baumannii is made. A 0.5 McFarland is a measure of turbidity in a liquid sample that contains approximately 7.5×10^7 CFU/mL. The 0.5 McFarland standard is diluted in CAMHB and 50 μL of broth is added to a well of a 96-well plate. In addition, 50 μL of CAMHB that contains a desired concentration of antimicrobial is added to the well for a final volume of 100 μL and a final concentration of approximately 5×10^4 CFU/well (which equates to approximately 5×10^5 CFU/mL). Each well contains a desired amount of CZ compound in order to experimentally determine the MIC. Each 96-well plate is incubated at 37° C. for 24 hours. The contents of each well is plated on tryptic soy agar (TSA). TSA plates is incubated at 37° C. for 24 hours after which the number of CFUs is counted and used to calculate the CFU/mL that remain after exposure to varying concentrations of compound. This procedure is repeated n=8 times for each concentration of antimicrobial. […]

[2] = tested on: MRSA; test: as above; type: cell-based, Staphylococcus aureus; conditions: Staphylococcus aureus, MRSA, read-out: MIC (MRSA)
How it was run: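 Compound exposure was 24 h at 37 °C in CAMHB with an inoculum of ~5×10^5 CFU/mL from a 0.5 McFarland; eight replicates per concentration.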

[3] = tested on: P. aeruginosa; test: as above; type: cell-based, Pseudomonas aeruginosa; conditions: Pseudomonas aeruginosa
How it was run: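 Broth microdilution in CAMHB with about 5×10^5 CFU/mL inoculum, incubated 24 h at 37 °C with graded polyamine compound concentrations. Surviving CFU/mL determined by plating each well on TSA for 24 h at 37 °C; n=8 per concentration.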

[4] = tested on: various bacterial cell cultures; test: Antimicrobial activity of polyamines in hydrogel on agar lawns; type: cell-based; conditions: 0.5% CZ compound in 0.5% sodium hyaluronate gel, 500 uL on TSA lawn, 37 C for 24 hours
Protocol: A 0.5 McFarland standard of each bacteria was made, then individual lawns of bacteria spread onto the surface of tryptic soy agar (TSA). 500 uL of the suspended gel were placed on the center of each lawn. Plates were incubated at 37 C for 24 hours, then imaged. Images of the resulting gels are shown in FIGS. 30A to 30I show the effects of the polyamines CZ-86, CZ-100, and CZ-110 on various bacterial cell cultures.
The hydrogel that was used for those images is a LifeCore gel with 1% sodium hyaluronate (1% Sodium Hyaluronate Solution Part #82). The CZ compound was suspended in water at 1% (w/w) concentration and combined with the LifeCore gel 1:1 for a final product that contained 0.5% sodium hyaluronate and 0.5% CZ compound.

[5] = tested on: human blood; test: Hemolysis test with diluted human blood (ISO 10993-4); type: cell-based
Text: Procedure: The PBS used in testing was calcium and magnesium free. The method has been validated using human blood from one donor. This is in compliance with ISO 10993-4 which states due to differences in blood activity, human blood should be used where possible. Furthermore, pooling unmatched human blood from multiple donors may cause red blood cell agglutination which in turn could cause hemolysis; this supports the use of a single donor.
The blood was drawn using vacutainers containing 0.1 M sodium citrate at a ratio of 9:1 (3.2% anticoagulant to blood). The blood in this test was used within four hours of blood draw. The collected blood was refrigerated until testing was performed.
A hemoglobin standard was diluted with Drabkin's reagent to give solutions at concentrations of 0.80, 0.60, 0.40, 0.30, 0.20, 0.10, 0.02, and 0.01 mg/ml. These solutions were allowed to stand at room temperature for a minimum of five minutes. The absorbance was read on a spectrophotometer at 540 nanometers (nm). A standard curve was determined with the absorbance values and the standard concentrations of hemoglobin.
Human blood was centrifuged at 700-800×g for 15 minutes. A 1 mL aliquot of the plasma was added into 1 mL of Drabkin's reagent, and placed at room temperature for a minimum of 15 minutes. The absorbance was read on a spectrophotometer at 540 nm. The hemoglobin concentration was determined from the standard curve and then multiplied by a factor of 2 to obtain the total plasma free hemoglobin. The plasma free hemoglobin was less than 2 mg/mL (actual value 0.221 mg/mL). A 20 μL aliquot of blood was added to 5 mL of Drabkin's reagent in duplicate and allowed to stand at room temperature for a minimum of 15 minutes. The absorbance was read on a spectrophotometer at 540 nm then multiplied by 251 to account for the dilution.
Based on the plasma hemoglobin and the blood absorbance against Drabkin's reagent, the blood was diluted out to 10±1 mg/mL with PBS. To verify the blood dilution, a 300 μL aliquot of this blood was added to 4.5 mL of Drabkin's reagent in triplicate and allowed to stand at room temperature for a minimum of 15 minutes. The absorbance was read on a spectrophotometer at 540 nm then multiplied by 16 to account for the dilution.
Glass test tubes were labeled appropriately. Both samples were prepared the same way. The samples were allowed to thaw prior to testing. To each test tube, 7 mL of the test article and 1 mL of the diluted blood were added. The controls consisted of the appropriate amount of control material, 7 mL of PBS and 1 mL of blood. Three tubes were prepared for each test article and control. The tubes were incubated at 37±2° C. for 3 hours±5 minutes. Tubes were gently inverted twice at 30 minute intervals throughout the incubation period. A non-hemolytic negative control, a hemolytic positive control and a PBS blank were included.
After incubation, test articles were centrifuged at 700-800×g for 15 minutes and 1 mL of the supernatant fluid was combined with 1 mL of Drabkin's reagent and allowed to stand at room temperature for a minimum of 15 minutes. Following the centrifugation phase, the supernatant of both test articles visually appeared clear and were particulate free. The PBS blank and the negative control supernatant visually appeared clear and were particulate free. The supernatant of the positive control visually appeared red and were particulate free. The test articles and controls were read at 540 nm in a spectrophotometer.
The hemolytic index (percent hemolysis) was interpreted using the following equation:
[formula] Where: Hemoglobin Released (mg/mL)=(Optical Density×X Coefficient+Constant)×16 Hemoglobin Present (mg/ml)=Diluted Blood 10±1 mg/mL
The corrected hemolytic index was calculated by subtracting the hemolytic index of the PBS blank solution from the hemolytic index of the test article and controls. […]

[6] = tested on: L-929 cells (ATCC CCL-1); test: Minimal Essential Media (MEM) Elution cytotoxicity test; type: cell-based; conditions: Table 10A
Protocol: Summary: The Minimal Essential Media (MEM) Elution test was designed to determine the cytotoxicity of extractable substances. The test article was added to cell monolayers and incubated. The cell monolayers were examined and scored based on the degree of cellular destruction.
Acceptance Criteria: The United States Pharmacopeia & National Formulary (USP <87>) states that the test article meets the requirements, or receives a passing score (Pass) if the reactivity grade is not greater than grade 2 or a mild reactivity.
Acceptance criteria were based upon the negative and media controls receiving “0” reactivity grades and positive controls receiving a 3-4 reactivity grades (moderate to severe).
The cell monolayers were examined microscopically. The wells were scored as to the degree of discernable morphological cytotoxicity on a relative scale of 0 to 4:
The results from the three wells were averaged to give a final cytotoxicity score.
[…] This initial concentration was then diluted 1: 2, 1:4, 1:8, and 1:16. Multiple well cell culture plates were seeded with a verified quantity of industry standard L-929 cells (ATCC CCL-1) and incubated until approximately 80% confluent. The test articles and control extracts were added to the cell monolayers in triplicate. The cells were incubated at 37±1° C. with 5±1% CO2 for 48±3 hours.

[7] = Table 5, read-out: MIC (P. aeruginosa)
[8] = read-out: MIC (P. aeruginosa), Table 5

SMILES	MIC ([1]; Table 5) [µM]	MIC ([2]; Table 5) [µM]	MIC [3, 7] [µM]	MIC [1] [µM]	MIC [2] [µM]	MIC [3, 8] [µM]	further results
NCCCNCCCNCc1cc(CNCCCNCCCN)cc(CNCCCNCCCN)c1 [CZ-55]	> 100	< 50	< 50				
CCCCC(CC)COc1cc(CNCCCNCCCN)cc(CNCCCNCCCN)c1 (stereo not shown) [CZ-81, N^1,N^1′-((5-((2-ethylhexyl)oxy)-1,3-phenylene)bis(methylene))bis(N^3-(3-aminopropyl)propane-1,3-diamine), hydrochloride salt]				< 50	< 50	< 50	
CCCCNCCCNCCCNCc1cc(CNCCCNCCCNCCCC)cc(-c2ccccc2)c1 [CZ-83, N^1,N^1′-([1,1′-biphenyl]-3,5-diylbis(methylene))bis(N^3-(3-(butylamino)propyl)propane-1,3-diamine), hydrochloride salt]				< 50	< 50	< 50	
CCCCCCCCNCCCNCCCNCc1cc(CNCCCNCCCNCCCCCCCC)cc(OCCCNCC(C)C)c1 [CZ-110, N^1,N^1′-((5-(3-(isobutylamino)propoxy)-1,3-phenylene)bis(methylene))bis(N^3-(3-(octylamino)propyl)propane-1,3-diamine)]	< 50	< 50	< 50				zones of inhibition in bacterial lawns [4]: created zones of inhibition
CCC(CC)COc1cc(CNCCCNCCCN)cc(CNCCCNCCCN)c1 [CZ-90, N^1,N^1′-((5-(2-ethylbutoxy)-1,3-phenylene)bis(methylene))bis(N^3-(3-aminopropyl)propane-1,3-diamine), hydrochloride salt]					< 50	< 50	Average Hemolytic Index (% Hemolysis) [5]: 0.76 % Hemolysis; Hemolytic Grade [5]: non-hemolytic; difference between the hemolytic indexes of test article and negative control [5]: 0.00%; Average Optical Density ([5]; 540 nm): 0.003; Optical Density ([5]; 540 nm, three tubes, 37 ± 2° C., 3 hours): 0.003; Corrected Hemolytic Index (% Hemolysis) ([5]; hemolytic index of the PBS blank subtracted): 0.00 % Hemolysis; Hemolytic Index ([5]; three tubes): 0.764
NCCCNCCCNCc1cc(CNCCCNCCCN)cc(-c2c(CNCCCNCCCN)cccc2CNCCCNCCCN)c1 [CZ-60]	> 100	< 50	> 100				
NCCCNCCCNCc1ccc(-c2cc(CNCCCNCCCN)cc(CNCCCNCCCN)c2)cc1 [CZ-65, N^1,N^1′,N^1″-([1,1′-biphenyl]-3,4′,5-triyltris(methylene))tris(N^3-(3-aminopropyl)propane-1,3-diamine), hydrochloride salt]				< 50			Results Pass/Fail ([6]; 25 μg/mL): Fail (a numerical grade greater than 2 is considered a cytotoxic effect, or a failing score (Fail)); Results Pass/Fail ([6]; dilution 1:2 of 25 μg/mL): Fail (a numerical grade greater than 2 is considered a cytotoxic effect, or a failing score (Fail)); Results Pass/Fail ([6]; dilution 1:4 of 25 μg/mL): Pass (receives a passing score (Pass) if the reactivity grade is not greater than grade 2 or a mild reactivity); Results Pass/Fail ([6]; dilution 1:8 of 25 μg/mL): Pass (receives a passing score (Pass) if the reactivity grade is not greater than grade 2 or a mild reactivity); Results Pass/Fail ([6]; dilution 1:16 of 25 μg/mL): Pass (receives a passing score (Pass) if the reactivity grade is not greater than grade 2 or a mild reactivity)
CCCCCCCCNCCCNCCCNCc1cc(CNCCCNCCCNCCCCCCCC)cc(OCC2CCCCC2)c1 [CZ-103, N^1,N^1′-((5-(cyclohexylmethoxy)-1,3-phenylene)bis(methylene))bis(N^3-(3-(octylamino)propyl)propane-1,3-diamine)]	< 50	< 50	< 50				
